The text below walks through data of patent US11298343B2, “Method for treating thalassemia” (ST. JUDE CHILDREN'S RESEARCH HOSPITAL, priority 2017, dated 2022).

Residues, ends and D or L forms follow the SMILES beside them. *: point of attachment. Cbz = O=C(OCc1ccccc1)*

Data set [1] deals with free α-globin in β-thalassemic erythroblasts. Put plainly: Free α-globin by HPLC in erythroblasts derived from β-thalassemia patient CD34+ cells. It is filed as cell-based, human. Particulars: for reduction of free α-globin: rapamycin 10 μM or 20 μM added day 13, HPLC two days later. The method, then: Cells were lysed in Hemolysate reagent (Helena Laboratories, Beaumont, Tex.) and centrifuged. Analysis of globin chains in the supernatant was performed by ion exchange (IE) and reverse phase (RP)-HPLC (Prominence UFLC, Shimadzu). Proteins eluting from the column were quantified by light absorbance at 220, 280, and 415 nm with a diode array detector. The relative amount of free α-globin was calculated from the area of the peak for each condition at 415 nm and normalized based on the DMSO control. The percentage was calculated as follows: % α-globin=[α-chain/ρ-chain (β+γ+δ)×100].

The test system of a further data set is Hbb^Th3/+ reticulocytes. Put plainly: Reticulocyte pulse-chase analysis of insoluble α-globin turnover with inhibitors. The data set is classed as cell-based, mice. The settings on record: 6 hours chase, 10 μM MG132, 100 μM chloroquine or 0.2 μM bafilomycin A1. As to the method:
Briefly, reticulocytes were pulse-labeled with ^35S-cysteine and ^35S-methionine for 30 minutes then chased with unlabeled amino acids±proteasome inhibitor (10 μM MG132) and/or lysosome inhibitor (100 μM chloroquine or 0.2 μM bafilomycin A1). Insoluble α-globin was isolated by TAU gel electrophoresis, analyzed by autoradiography, and quantified using AlphaView SA 3.4.0 (ProteinSimple).
To investigate how the depletion of ULK1 or ATG5 affects the turnover of insoluble α-globin in β-thalassemia, mutant reticulocytes were pulse-labeled with ^35S-labeled amino acids, chased for various times with unlabeled amino acids with or without various inhibitors, and the soluble and insoluble nascent radiolabeled α-globin in cell lysates was quantified.

The subject of data set [2] is β-thalassemic erythroblasts. Put plainly: Cell survival of treated erythroblasts derived from β-thalassemia patient CD34+ cells. Particulars: added day 13, 48 hours.
Text: Erythroid differentiation and maturation were monitored by flow cytometry with an LSR/Fortessa cell analyzer (BD Biosciences), using the following antibodies: anti-CD235a (BD Biosciences), anti-Band3, and anti-α4-integrin (Miltenyi).
The test system of data set [3] is β-thalassemic and control mice. The experiment in a line: Hematologic analysis of mice treated with rapamycin for 30 days. It is filed as in vivo. The method, then: Mice were analyzed at 1-6 months of age. Blood was collected by submandibular bleeding, anticoagulated with EDTA, and analyzed on a FORCYTE Veterinary Hematology Analyzer.
(§1) Tissue samples were submitted for pathology analysis.

For data set [4], the system named is β-thalassemic and control mice. The experiment in a line: Pathology grading of erythropoiesis (bone marrow, spleen, liver) in rapamycin-treated mice. The data set is classed as in vivo. The settings on record: rapamycin 30 days; for Bone marrow erythropoiesis grade / Liver erythropoiesis grade / Spleen erythropoiesis grade: grade scale 0-5; for Final grade (sum of the grades of the three tissues): scale 0-15. The method, then:
Bright-field images of hematoxylin and eosin-stained tissues were acquired with a Nikon Eclipse Ni microscope. Morphologic phenotyping of all cohorts was carried out in a blinded manner by a board-certified veterinary pathologist. A semi-quantitative grading method was used to highlight visual differences in the erythropoiesis in each cohort. The bone marrow, spleen, and liver were first analyzed separately using the following grading scale: grade 0: within normal limits; grade 1: minimal; grade 2: mild; grade 3: moderate; grade 4: marked; grade 5: severe. A total grade for erythropoiesis (final grade) was calculated based on the sum of the grades for each of the three tissues. […] No mouse received a grade consistent with a severe increase in erythropoiesis.
as §1

In a further data set the test system is insoluble α-globin. Put plainly: Detection of insoluble α-globin precipitates (TAU gel) in erythroid cells of treated mice. The data set is classed as in vivo. Particulars: FIG. 2. The method, then: Briefly, 20 μL of washed RBCs (normalized based on the hematocrit percentage) were lysed and centrifuged at 16,000×g at 4° C. for 30 minutes. The pellets were washed extensively in ice-cold 0.05×PBS. Membrane lipids were extracted with 56 mM sodium borate, pH 8.0, containing 0.1% TWEEN-20, at 4° C. Precipitated globins were dissolved in 8M urea, 10% acetic acid, 10% β-mercaptoethanol, and 0.04% pyronin, fractionated by TRITON-acetic acid-urea (TAU) gel electrophoresis, and stained with COOMASSIE brilliant blue. Soluble hemoglobin fractions were analyzed and quantified as loading controls by using AlphaView SA 3.4.0 (ProteinSimple).
as §1
(§2) Insoluble α-globin in reticulocytes from rapamycin-treated Hbb^Th3/+ mice was decreased by approximately 50% (FIG. 2).

Data set [5] concerns electron-dense α-globin inclusions in reticulocytes. Put plainly: Transmission electron microscopy of electron-dense aggregates in reticulocytes of treated mice. It is filed as in vivo. The settings on record: β-thalassemic mice treated with rapamycin vs vehicle-treated controls; P<0.0001. The method, then:
Samples were fixed in 2.5% glutaraldehyde in 0.1M sodium cacodylate buffer, pH 7.4, and embedded in 2% low-gelling-temperature agarose. The samples were post-fixed in 2% osmium tetroxide in 0.1M cacodylate buffer with 0.3% potassium ferrocyanide for 1.5 hours, dehydrated through a graded series of ethanol/propylene oxide solutions, then infiltrated with and embedded in epoxy resin, which was polymerized at 70° C. overnight. Semi-thin (0.5 μm) sections were stained with toluidine blue for light microscope examination. Ultra-thin (80 nm) sections were cut and imaged using an FEI Tecnai 200 Kv FEG Transmission Electron Microscope with an ATM XR41 digital camera.
Areas of electron-dense α-globin inclusions in reticulocytes were quantified by automated image analysis of electron micrographs. TEM images were analyzed with the FIJI software program and the Trainable Weka Segmentation plugin to produce pixel-based segmentations in order to quantify differences in the numbers and areas of intracytoplasmic hemoglobin precipitates in thalassemic and non-thalassemic samples (Schindelin, et al. (2012) Nat. Meth. 9:676-682; Arganda-Carreras, et al. (2017) Bioinformatics 33:2424-2426).
as §1, §2

A further data set concerns Hbb^Th3/+ mice. The settings on record: systemic administration (Khandros 2012); cited from earlier work.
[6] abbreviates: Hbb^+/+ Ulk1^+/+ mice, rapamycin 4 mg/kg i.p. daily 30 days, mean ± SD.
Where [7] appears, read: Hbb^Th3/+ Ulk1^+/+ mice, rapamycin 4 mg/kg i.p. daily 30 days, mean ± SD.
Setting [8] is: Hbb^Th3/+ Ulk1^−/− mice, rapamycin 4 mg/kg i.p. daily 30 days, mean ± SD.
The mark [9] stands for this setting: β-thalassemic mice, rapamycin 4 mg/kg i.p. daily 30 days vs vehicle, P<0.001.

Turning to `CC(C)C[C@@H](C=O)NC(=O)[C@H](CC(C)C)NC(=O)[C@H](CC(C)C)NC(=O)OCc1ccccc1` [MG132] (Cbz-Leu-Leu-Leu-aldehyde), the “free α-globin levels” value in data set [1] (β-thalassemic erythroblasts, MG132 1 μM or 2.5 μM added day 13, HPLC two days later) was “raised free α-globin levels”. Besides, the “sensitivity of clearance of labeled insoluble α-globin to the inhibitor” value in the data set on Hbb^Th3/+ reticulocytes is on record as “sensitive”. Besides, the “effect on cell survival” value in data set [2] is on record as “induced cell death”.
Consider `CO[C@H]1C[C@@H]2CC[C@@H](C)[C@@](O)(O2)C(=O)C(=O)N2CCCC[C@H]2C(=O)O[C@H]([C@H](C)C[C@@H]2CC[C@@H](O)[C@H](OC)C2)CC(=O)[C@H](C)/C=C(\C)[C@@H](O)[C@@H](OC)C(=O)[C@H](C)C[C@H](C)/C=C/C=C/C=C/1C` [rapamycin], for which, in data set [3] (setting [6]), the Hb is reported as 13.78 ± 1.99^ns g/dL, the Hct was 40.98 ± 5.75^ns %, the MCH is 14.53 ± 0.53^ns pg and the MCHC is on record as 33.66 ± 0.76^ns g/dL. Moreover, in data set [3] (setting [6]), the MCV is 42.89 ± 1.61^ns fL, the RDW was 14.40 ± 0.91^ns % and the Reticulocytes was 2.90 ± 1.21^ns %. In data set [3] (setting [7]), this compound gave a Hb of 10.33 ± 1.07 g/dL, a Hct of 29.42 ± 3.59 %, an MCH of 11.56 ± 1.21 pg and an MCHC of 35.54 ± 1.01 g/dL. In data set [3] (setting [7]), this compound returned an MCV of 32.67 ± 3.02 fL, an RDW of 31.05 ± 5.23 % and a Reticulocytes of 13.06 ± 6.67 %. For the same compound, in data set [3] (setting [8]), the Hct was 25.42 ± 4.59^ns %, the MCH is 15.08 ± 1.31^ns pg, the MCHC is 34.99 ± 2.14^ns g/dL and the MCV is 43.03 ± 1.62 fL. Further, in data set [3] (setting [8]), the RBC is on record as 5.81 ± 0.99^ns ×10^6/μL, the RDW was 39.73 ± 0.66^ns % and the Reticulocytes is recorded as 34.35 ± 2.78^ns %. For the same compound, in data set [3] (wild-type or Hbb^Th3/+Ulk1^−/− mice), the “effect on RBC indices or erythropoiesis” value is recorded as “no effect”. Besides, in data set [3] (setting [9]), the “decrease in reticulocyte count” value came out at 44% and the “increase in RBC count” value stood at 27%. In addition, the “increase in Hb” value in data set [3] (β-thalassemic mice, rapamycin 4 mg/kg i.p. daily 30 days vs vehicle, P<0.05) was 10%. In data set [4] (Hbb^+/+ Ulk1^+/+ mice), the “Bone marrow erythropoiesis grade” value is 0.00 ± 0.00^ns, the Liver erythropoiesis grade is on record as 0.44 ± 0.53^ns, the Spleen erythropoiesis grade is 0.00 ± 0.00^ns and the “Final grade (sum of the grades of the three tissues)” value (“Final grade” below) was 0.44 ± 0.53^ns. Further, in data set [4] (Hbb^Th3/+ Ulk1^+/+ mice), the “Bone marrow erythropoiesis grade” value is 1.75 ± 1.67^ns, the Liver erythropoiesis grade is reported as 0.87 ± 0.35^ns, the Spleen erythropoiesis grade turned out to be 2.37 ± 0.52 and the “Final grade” value was determined as 5.00 ± 1.85. Moreover, in data set [4] (Hbb^Th3/+ Ulk1^−/− mice), the “Bone marrow erythropoiesis grade” value is listed as 3.30 ± 0.48^ns, the Liver erythropoiesis grade is reported as 1.10 ± 0.31, the Spleen erythropoiesis grade was 3.20 ± 0.79^ns and the “Final grade” value is recorded as 7.60 ± 1.07^ns. The “effect on the accumulation of insoluble α-globin” value in the data set on insoluble α-globin (Hbb^Th3/+Ulk1^−/− mice) is on record as “no effect”. Also, the “decrease of insoluble α-globin in reticulocytes” value in the data set with insoluble α-globin (rapamycin-treated Hbb^Th3/+ mice) is “approximately 50%”. Besides, in data set [5], the “reduction in electron-dense aggregates in reticulocytes (TEM)” value is “approximately 60%”. Moreover, in data set [1] (NTD β-thalassemic erythroblasts, P<0.001), the “reduction of free α-globin” value is on record as 85%. The “reduction of free α-globin” value in data set [1] (TD β-thalassemia erythroblasts, P<0.0001) was 40%. In data set [2], the “effect on cell survival” value is given as “no deleterious effect on cell survival”.
In the case of `CO/C1=C\C(C)=C\[C@@H](C)[C@@H](O)[C@@H](C)C/C(C)=C/C=C/[C@H](OC)[C@@H]([C@@H](C)[C@@H](O)[C@H](C)[C@@]2(O)C[C@@H](O)[C@H](C)[C@@H](C(C)C)O2)OC1=O` [bafilomycin A1], the “sensitivity of clearance of labeled insoluble α-globin to the inhibitor” value in the data set on Hbb^Th3/+ reticulocytes is “sensitive”.
As for `CC(C)C[C@H](NC(=O)[C@H](Cc1ccccc1)NC(=O)c1cnccn1)B(O)O` [bortezomib], in the data set with Hbb^Th3/+ mice, the “induction of autophagy and heat-shock proteins” value is “induced both autophagy and heat-shock proteins”; the “insoluble α-globin” value is recorded as “no net increase in insoluble α-globin”.
